Assay results published in the NIST ThermoML archive (doi:10.1016/j.tca.2013.03.017).
± gives the expanded uncertainty stated by the source.

Columns and labels:
[1] = 101 kPa, Liquid, Hot wire method
[2] = molar heat capacity at constant pressure; conditions: 101 kPa, Liquid, Small sample (50 mg) DSC
[3] = xn = mol fraction of the nth substance listed; conditions: 101 kPa, Liquid, Hot wire method, x2 = 0
[4] = molar heat capacity at constant pressure; xn = mol fraction of the nth substance listed; conditions: 101 kPa, Liquid, Small sample (50 mg) DSC, x2 = 0

Row | SMILES | thermal conductivity ([1]; 303.15 K) [W/m/K] | thermal conductivity ([1]; 313.15 K) [W/m/K] | thermal conductivity ([1]; 323.15 K) [W/m/K] | thermal conductivity ([1]; 333.15 K) [W/m/K] | thermal conductivity ([1]; 343.15 K) [W/m/K] | thermal conductivity ([1]; 353.15 K) [W/m/K] | molar heat capacity at constant pressure ([2]; 303.15 K) [J/K/mol] | molar heat capacity at constant pressure ([2]; 313.15 K) [J/K/mol] | molar heat capacity at constant pressure ([2]; 323.15 K) [J/K/mol] | molar heat capacity at constant pressure ([2]; 333.15 K) [J/K/mol] | molar heat capacity at constant pressure ([2]; 343.15 K) [J/K/mol] | molar heat capacity at constant pressure ([2]; 353.15 K) [J/K/mol] | further results
1 | O=S1(=O)CCCC1 [sulfolane] | 0.1678 ± 0.0008 | 0.1656 ± 0.0012 | 0.1634 ± 0.0011 | 0.1616 ± 0.0011 | 0.1593 ± 0.0011 | 0.1581 ± 0.0009 | 181.5 ± 2.8 | 185.1 ± 2.9 | 188.7 ± 2.9 | 192.3 ± 3 | 194.3 ± 3 | 197.8 ± 3.1 | 
2 | O [water] | 0.6137 ± 0.0027 | 0.6307 ± 0.0039 | 0.6437 ± 0.0039 | 0.6548 ± 0.004 | 0.6632 ± 0.004 | 0.67 ± 0.0037 | 75.3 ± 1.2 | 75.26 ± 1.2 | 75.3 ± 1.2 | 75.39 ± 1.2 | 75.48 ± 1.2 | 75.6 ± 1.2 | 
3 | O [water] + O=S1(=O)CCCC1 |  |  |  |  |  |  |  |  |  |  |  |  | thermal conductivity ([3]; 303.15 K): 0.6137 ± 0.0027 W/m/K; thermal conductivity ([3]; 313.15 K): 0.6307 ± 0.0039 W/m/K; thermal conductivity ([3]; 323.15 K): 0.6437 ± 0.0039 W/m/K; thermal conductivity ([3]; 333.15 K): 0.6548 ± 0.004 W/m/K; thermal conductivity ([3]; 343.15 K): 0.6632 ± 0.004 W/m/K; thermal conductivity ([3]; 353.15 K): 0.67 ± 0.0037 W/m/K; molar heat capacity at constant pressure ([4]; 303.15 K): 75.3 ± 1.2 J/K/mol; molar heat capacity at constant pressure ([4]; 313.15 K): 75.26 ± 1.2 J/K/mol; molar heat capacity at constant pressure ([4]; 323.15 K): 75.3 ± 1.2 J/K/mol; molar heat capacity at constant pressure ([4]; 333.15 K): 75.39 ± 1.2 J/K/mol; molar heat capacity at constant pressure ([4]; 343.15 K): 75.48 ± 1.2 J/K/mol; molar heat capacity at constant pressure ([4]; 353.15 K): 75.6 ± 1.2 J/K/mol
